This note sets out measurements from ChEMBL document CHEMBL1201862, “PubChem BioAssay data set” (2004).

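Five concentrations, 48 hours, 96-well plates. Abbreviation: GI50, concentration required for 50% inhibition of growth.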 Calls of active or inactive are those of the source. No stated cut-off is given here; in the data, active = GI50 up to about 1.1 µM and inactive = higher.

Some test systems named below: ACHN; COLO 205; EKVX; HCC 2998; HCT-116; HL-60; HOP-18; MDA-MB-435; MDA-N; NCI-H226; NCI-H460; NCI/ADR-RES; OVCAR-5; OVCAR-8; RXF 393; SK-MEL-28; SK-MEL-2; SK-OV-3; SW-620; UACC-257.
Holding throughout (test): NCI anticancer screen, dose series, 48 h

On to `Cn1cnc([N+](=O)[O-])c1Sc1nc(N)nc2c1ncn2C1OC(CO)C(O)C1O` (stereo not given), for which the GI50 with ACHN is 9.04 µM (inactive); in the assay on COLO 205, 7.83 µM (inactive); in the assay with EKVX, 8.39 µM (inactive); in the assay with HCC 2998, 2.77 µM (inactive); with HCT-116, 3.85 µM (inactive); in the assay with HL-60 it was 9.44 µM (inactive). Besides, the GI50 in the assay with HOP-18 is 44.7 µM (inactive); in the assay on MDA-MB-435, 1.5 µM (inactive); in the assay with MDA-N it was 2.73 µM (inactive); in the assay with NCI-H226, 15.8 µM (inactive); in the assay with NCI-H460, 1.69 µM (inactive); with NCI/ADR-RES it was 0.182 µM (active). Further, the GI50 in the assay on OVCAR-5 is 1.88 µM (inactive); with OVCAR-8 it was 2.51 µM (inactive); in the assay on RXF 393, 3.78 µM (inactive); in the assay on SK-MEL-28, 28 µM (inactive); in the assay on SK-MEL-2, 0.497 µM (active); with SK-OV-3, 3.48 µM (inactive). Also, the results for the GI50 in the assay with SW-620 and in the assay with UACC-257 were 28.1 µM (inactive) and 15.2 µM (inactive), respectively.
